Reference: ChEMBL document CHEMBL1134031, “Dimeric L-dopa derivatives as potential prodrugs” (Bioorg Med Chem Lett, 2001)
Where “and” joins values, the source holds several entries; their conditions need not be identical. Equal entries are not always repeated.

Assays:
[1] = human, plasma
Description: (§1) Observed rate constant in 80% human plasma at 37 degree Centigrade

in vitro [2] = settings: rat, 80% rat plasma
Description: Half life period in 80% rat plasma at 37 degree Centigrade

[3] = pH 1.3
Description: Observed rate constant at a pH of 1.3

[4] = human, plasma; remark: listed apart in the source
Description: as §1

[5] = pH 7.4
Description: Observed rate constant at a pH of 7.4

physchem [6] = settings: octanol/phosphate buffer, pH 7.4
Description: Partition coefficient value in octanol and phosphate buffer (log P) at pH of 7.4 was determined.

physchem [7] = settings: pH 1.3
Description: Half life period at a pH 1.3 was determined

physchem [8] = settings: dog, in vivo, pH 7.4
Description: Half life period at a pH 7.4 was determined

in vitro [9] = settings: human, 80% human plasma, T1/2
Description: (§2) Half life period in 80% human plasma at 37 degree Centigrade

[10] = human, plasma; remark: listed apart in the source
Description: as §2

Description for Rattus norvegicus: Observed rate constant in 80% rat plasma at 37 degree Centigrade

Row | SMILES | K obs (Rattus norvegicus) [min⁻¹] | k1 obs [1] [min⁻¹] | half-life (in vitro [2]) [h] | K obs [3] [h⁻¹] | k2 obs [4] [min⁻¹] | K obs [5] [h⁻¹] | logD (physchem [6]) | half-life (physchem [7]) [h] | half-life (physchem [8]) [h] | half-life (in vitro [9]) [h] | T1/2 [10]
1 | COC(=O)[C@H](Cc1ccc(OC(C)=O)c(OC(C)=O)c1)NC(=O)CCCCC(=O)N[C@@H](Cc1ccc(OC(C)=O)c(OC(C)=O)c1)C(=O)OC | 0.17 | 0.081 | 0.0683 | 0.014 | 0.01 | 0.04 | 0.92 | 48.8 | 17.3 |  | 
2 | COC(=O)[C@H](Cc1ccc(OC(C)=O)c(OC(C)=O)c1)NC(=O)N[C@@H](Cc1ccc(OC(C)=O)c(OC(C)=O)c1)C(=O)OC | 0.028 | 0.0068 | 0.407 | 0.042 | 0.0025 | 0.049 | 1.04 | 16.5 | 14.2 |  | 1.698 h and 4.62 h

Results, then the molecule that gave them:

Row | K obs (Rattus norvegicus) [min⁻¹] | k1 obs [1] [min⁻¹] | half-life (in vitro [2]) [h] | K obs [3] [h⁻¹] | k2 obs [4] [min⁻¹] | K obs [5] [h⁻¹] | logD (physchem [6]) | half-life (physchem [7]) [h] | half-life (physchem [8]) [h] | half-life (in vitro [9]) [h] | T1/2 [10] | SMILES
3 | 0.34 | 0.052 | 0.0333 | 0.13 | 0.0086 | 0.043 | 0.85 | 55.4 | 16.2 |  |  | COC(=O)[C@H](Cc1ccc(OC(C)=O)c(OC(C)=O)c1)NC(=O)CCC(=O)N[C@@H](Cc1ccc(OC(C)=O)c(OC(C)=O)c1)C(=O)OC
4 | 0.11 | 0.0083 | 0.102 | 0.032 | 0.0045 | 0.049 | 0.73 | 20 | 14.2 | 1.38 | 2.547 h | COC(=O)[C@H](Cc1ccc(OC(C)=O)c(OC(C)=O)c1)NC(=O)C(=O)N[C@@H](Cc1ccc(OC(C)=O)c(OC(C)=O)c1)C(=O)OC
5 | 0.24 | 0.011 | 0.0483 | 0.01 | 0.0045 | 0.05 | 0.87 | 68.1 | 13.9 |  | 1.05 h and 2.57 h | COC(=O)[C@H](Cc1ccc(OC(C)=O)c(OC(C)=O)c1)NC(=O)CCCC(=O)N[C@@H](Cc1ccc(OC(C)=O)c(OC(C)=O)c1)C(=O)OC
